From article PMC8037182, “Solvothermal Synthesis of Multiple Dihydropyrimidinones at a Time as Inhibitors of Eg5” (Molecules, 2021)

What was measured:
[1] = system: T24 cell line; test: Cytotoxicity MTS assay, T24 cell line; assay type: cell-based; details: for OD490 Mean / OD490 Well 1 / OD490 Well 2 / OD490 Well 3: T24 cell line, first assay;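 as to OD490 Mean: blank control wells received 0.025% DMSO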;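 as to OD490 Well 1: blank control wells received 0.025% DMSO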;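 as to OD490 Well 2: blank control wells received 0.025% DMSO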;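 as to OD490 Well 3: blank control wells received 0.025% DMSO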
Outline: (§1)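 Cells seeded at 1000 per well, grown 24 h, then exposed to compound (0.5–100 µM final) for 24 h with 0.025% DMSO blank. MTS reagent added for 2 h at 37 °C, absorbance read at 490 nm; IC50 from non-linear regression of % viability versus concentration, three independent duplicate experiments.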

[2] = system: Caco-2 cell line; test: Cytotoxicity MTS assay, Caco-2 cell line; assay type: cell-based; details: for OD490 Mean / OD490 Well 1 / OD490 Well 2 / OD490 Well 3: Caco-2 cell line
Outline: as §1

Structure (SMILES): CCOC(=O)c1[nH]c(C2NC(=O)NC(C)=C2C(=O)Nc2ccc(Cl)cc2)c(C(=O)OCC)c1C (centres unmarked) [D7]
- IC50 ([1]; MTS assay, 24 h exposure): > 150 µM
- OD490 Mean ([1]; 0.5μM): 1.2446
- OD490 Well 1 ([1]; 0.5μM): 1.2491
- OD490 Well 2 ([1]; 0.5μM): 1.2874
- OD490 Well 3 ([1]; 0.5μM): 1.1973
- OD490 Mean ([1]; 1μM): 1.5295
- OD490 Well 1 ([1]; 1μM): 1.4588
- OD490 Well 2 ([1]; 1μM): 1.7975
- OD490 Well 3 ([1]; 1μM): 1.3323
- OD490 Mean ([1]; 10μM): 1.4981
- OD490 Well 1 ([1]; 10μM): 1.4996
- OD490 Well 2 ([1]; 10μM): 1.6104
- OD490 Well 3 ([1]; 10μM): 1.3842
- OD490 Mean ([1]; 25μM): 1.5238
- OD490 Well 1 ([1]; 25μM): 1.6186
- OD490 Well 2 ([1]; 25μM): 1.5573
- OD490 Well 3 ([1]; 25μM): 1.3956
- OD490 Mean ([1]; 50μM): 1.3341
- OD490 Well 1 ([1]; 50μM): 1.3613
- OD490 Well 2 ([1]; 50μM): 1.2657
- OD490 Well 3 ([1]; 50μM): 1.3754
- OD490 Mean ([1]; 100μM): 1.4451
- OD490 Well 1 ([1]; 100μM): 1.4704
- OD490 Well 2 ([1]; 100μM): 1.5023
- OD490 Well 3 ([1]; 100μM): 1.3625
- OD490 Mean ([2]; 0.5μM, first assay): 0.5690
- OD490 Well 1 ([2]; 0.5μM, first assay): 0.5534
- OD490 Well 2 ([2]; 0.5μM, first assay): 0.6352
- OD490 Well 3 ([2]; 0.5μM, first assay): 0.5185
- OD490 Mean ([2]; 0.5μM, second assay): 0.6172
- OD490 Well 1 ([2]; 0.5μM, second assay): 0.6374
- OD490 Well 2 ([2]; 0.5μM, second assay): 0.6303
- OD490 Well 3 ([2]; 0.5μM, second assay): 0.5839
- OD490 Mean ([2]; 0.5μM, third assay): 0.5837
- OD490 Well 1 ([2]; 0.5μM, third assay): 0.6634
- OD490 Well 2 ([2]; 0.5μM, third assay): 0.5231
- OD490 Well 3 ([2]; 0.5μM, third assay): 0.5647
- OD490 Mean ([2]; 1μM, first assay): 0.5311
- OD490 Well 1 ([2]; 1μM, first assay): 0.5419
- OD490 Well 2 ([2]; 1μM, first assay): 0.5318
- OD490 Well 3 ([2]; 1μM, first assay): 0.5197
- OD490 Mean ([2]; 1μM, second assay): 0.5625
- OD490 Well 1 ([2]; 1μM, second assay): 0.5454
- OD490 Well 2 ([2]; 1μM, second assay): 0.5593
- OD490 Well 3 ([2]; 1μM, second assay): 0.5827
- OD490 Mean ([2]; 1μM, third assay): 0.5540
- OD490 Well 1 ([2]; 1μM, third assay): 0.5665
- OD490 Well 2 ([2]; 1μM, third assay): 0.5741
- OD490 Well 3 ([2]; 1μM, third assay): 0.5214
- OD490 Mean ([2]; 10μM, first assay): 0.5404
- OD490 Well 1 ([2]; 10μM, first assay): 0.5519
- OD490 Well 2 ([2]; 10μM, first assay): 0.5485
- OD490 Well 3 ([2]; 10μM, first assay): 0.5208
- OD490 Mean ([2]; 10μM, second assay): 0.5334
- OD490 Well 1 ([2]; 10μM, second assay): 0.5402
- OD490 Well 2 ([2]; 10μM, second assay): 0.5543
- OD490 Well 3 ([2]; 10μM, second assay): 0.5057
- OD490 Mean ([2]; 10μM, third assay): 0.5421
- OD490 Well 1 ([2]; 10μM, third assay): 0.5552
- OD490 Well 2 ([2]; 10μM, third assay): 0.5101
- OD490 Well 3 ([2]; 10μM, third assay): 0.5610
- OD490 Mean ([2]; 25μM, first assay): 0.5145
- OD490 Well 1 ([2]; 25μM, first assay): 0.5041
- OD490 Well 2 ([2]; 25μM, first assay): 0.5114
- OD490 Well 3 ([2]; 25μM, first assay): 0.5279
- OD490 Mean ([2]; 25μM, second assay): 0.5117
- OD490 Well 1 ([2]; 25μM, second assay): 0.548
- OD490 Well 2 ([2]; 25μM, second assay): 0.4698
- OD490 Well 3 ([2]; 25μM, second assay): 0.5172
- OD490 Mean ([2]; 25μM, third assay): 0.5181
- OD490 Well 1 ([2]; 25μM, third assay): 0.5221
- OD490 Well 2 ([2]; 25μM, third assay): 0.5321
- OD490 Well 3 ([2]; 25μM, third assay): 0.5000
- OD490 Mean ([2]; 50μM, first assay): 0.4389
- OD490 Well 1 ([2]; 50μM, first assay): 0.5283
- OD490 Well 2 ([2]; 50μM, first assay): 0.4168
- OD490 Well 3 ([2]; 50μM, first assay): 0.3716
- OD490 Mean ([2]; 50μM, second assay): 0.4826
- OD490 Well 1 ([2]; 50μM, second assay): 0.5209
- OD490 Well 2 ([2]; 50μM, second assay): 0.4937
- OD490 Well 3 ([2]; 50μM, second assay): 0.4332
- OD490 Mean ([2]; 50μM, third assay): 0.4437
- OD490 Well 1 ([2]; 50μM, third assay): 0.5112
- OD490 Well 2 ([2]; 50μM, third assay): 0.4213
- OD490 Well 3 ([2]; 50μM, third assay): 0.3987
- OD490 Mean ([2]; 100μM, first assay): 0.3891
- OD490 Well 1 ([2]; 100μM, first assay): 0.3713
- OD490 Well 2 ([2]; 100μM, first assay): 0.3955
- OD490 Well 3 ([2]; 100μM, first assay): 0.4006
- OD490 Mean ([2]; 100μM, second assay): 0.4527
- OD490 Well 1 ([2]; 100μM, second assay): 0.4755
- OD490 Well 2 ([2]; 100μM, second assay): 0.4428
- OD490 Well 3 ([2]; 100μM, second assay): 0.4398
- OD490 Mean ([2]; 100μM, third assay): 0.3973
- OD490 Well 1 ([2]; 100μM, third assay): 0.4012
- OD490 Well 2 ([2]; 100μM, third assay): 0.4123
- OD490 Well 3 ([2]; 100μM, third assay): 0.3785
- IC50 ([2]; MTS assay, 24 h exposure): 81.9 µM
